# Experimental data published in patent publication US10710968B2 (Hadasit Medical Research Services and Development Ltd., priority 2016, dated 2020).
# What was measured:
# QG56 cells (wt EGFR) = assay: Cell growth inhibition, methylene blue assay, QG56; assay type: cell-based, human; conditions: QG56, None (wt EGFR), 72 hours, mean±SD
# Description: (§1) NCI-H1975 and HCC827 were obtained from the ATCC. QG56 cells were obtained from Prof. Alexander Levitzki's lab, The Silberman Institute of Life Sciences, the Hebrew University, Jerusalem. […] All media were supplemented with fetal bovine serum (FBS, (10%)) and antibiotics (penicillin 10^4 units/L, streptomycin 10 mg/L) (BI, Israel).
# (§2) Four human NSCLC cell lines were selected: QG56, HCC827, NCI-H3255 and NCI-H1975. These cell lines harbor the prevailing EGFR variants identified in NSCLC patients, including the wild-type receptor (QG56 cells) and the two most common activating mutations in the TK domain of the receptor: an exon 19 deletion (ΔE746-A750) (HCC827 cells) and the L858R point mutation in exon 21 (NCI-H3255). NCI-H1975 cells were also selected, since on top of the activating L858R point mutation, these cells harbor the secondary T790M mutation in exon 20, which confers resistance to TKI-therapy.
# (§3) The median inhibitory concentration (IC50) of the tested compound for cell growth of each cell line was then calculated using GraphPad Prism 5.0 software. Results are presented as mean±SD.
# [1] = tested on: NCI-H3255 cells (EGFR L858R point mutation); assay: Cell growth inhibition, methylene blue assay, NCI-H3255; assay type: cell-based, human; conditions: NCI-H3255, Activating (L858R point mutation), 72 hours, mean±SD
# Description: as §1, §2, §3
# [2] = tested on: NCI-H1975 cells (EGFR L858R + T790M); assay: Cell growth inhibition, methylene blue assay, NCI-H1975; assay type: cell-based, human; conditions: NCI-H1975, Double (L858R + T790M), 72 hours, mean±SD
# Description: as §1, §2, §3
# QG56 tumor = assay: PET/CT scans of QG56 tumor-bearing mice; assay type: in vivo; conditions: QG56 tumors, 60 minutes after i.v. injection
# Description: (§4) Dynamic (1 hour) PET scans are performed using Inveon™ MM PET-CT small animal-dedicated scanner (Siemens Medical Solutions, USA). […] Using image analysis tools, volume of interests (VOIs) are drawn for selected organs based on the PET and CT images, and the kinetics of radioactivity distribution in vivo (time-activity curves, (TACs)) is determined for these organs, and primarily for the NSCLC xenografts. The standardized uptake values (SUVs) of each radiolabeled compound in tumors are calculated and compared between the different tumors.
# (§5) In additional PET/CT studies, five QG56 (erlotinib-insensitive) and five HCC827 (erlotinib-sensitive) tumor-bearing mice were scanned for 60 minutes following i.v. injection of [^18F]6-O-FEE (7.14±0.7 Mbq).
# [3] = Stability of the final formulation in solution (radio-TLC and HPLC); assay type: physicochemical; conditions: final formulation (ethanol/isotonic saline)
# Description: In brief, a solution of ethylene 1,2-(bis) tosylate (11-13 mg) dissolved in anhydrous MeCN ([…]) was added to the dried [^18F]fluoride. The reaction is heated to 120° C. while stirring for 10 minutes, and the reaction mixture was thereafter cooled to 50° C. The ^18F-fluoroethyltosylate was then further diluted with 1 mL MeCN and transferred to a second reactor that was pre-stirred and heated under argon stream for 5 minutes with 9-11 mg of desmethylerlotinib dissolved in 0.6 mL of DMF and 6-8 mg of NaH. […]
# The radiochemical purity was determined using analytical HPLC equipped with C18 analytical Luna column (5 μm, 4.6 mm>250 mm, Luna, phenomenex, Torrance, Calif., USA), with a variable wavelength UV detector operated at λ=254 nm, and a radioactivity detector with NaI crystals, and was routinely greater than 98%. […] Solvent residues were analyzed by GC, using a 1 μL injection of the final product, and compared to a standard solution containing 0.04% acetonitrile and 0.5% acetone. […]
# HCC827 tumor = assay: PET/CT scans of HCC827 tumor-bearing mice; assay type: in vivo
# Description: as §4, §5
IC50 [1],IC50 [2],tumor SUV (QG56 tumor),"higher uptake in HCC827 tumors compared to QG56 tumors (HCC827 tumor; 60 minutes after i.v. injection, mice, p=0.0072)","tumor SUV (HCC827 tumor; HCC827 tumor-bearing mice, erlotinib in excess (6.1±0.3 mg/kg) 10 minutes prior to injection)","tumor SUV (HCC827 tumor; HCC827 tumor-bearing mice, without erlotinib pre-administration (blocking comparison))","tumor SUV (HCC827 tumor; HCC827 tumors, 60 minutes after i.v. injection, mice)","higher uptake in HCC827 tumor compared to NCI-H1975 tumor (HCC827 tumor; preliminary PET/CT study, i.v. injection, 60 minutes scan, mice)",SMILES,IC50 (QG56 cells (wt EGFR)),stability in solution [3],"reduction of tumor SUV by erlotinib in excess (HCC827 tumor; HCC827 tumor-bearing mice, erlotinib 6.1±0.3 mg/kg 10 minutes prior, p=0.018)"
0.033 ± 0.04 µM,3.6 ± 1 µM,,,,,,,"C#Cc1cccc(Nc2ncnc3cc(OCCOC)c(OCCF)cc23)c1 [6-O-FEE, 6-O-fluoroethylerlotinib]",14.4 ± 5 µM,,
,,0.28,2.5 fold,0.414,0.704,0.70,2.5-3 fold,"C#Cc1cccc(Nc2ncnc3cc(OCCOC)c(OCC[18F])cc23)c1 [[^18F]6-O-FEE, [^18F]6-fluoroethylerlotinib]",,remained stable in solution for over four hours,about 40%
